Experimental data as given in publication PMC4467139, “Garcinol sensitizes human head and neck carcinoma to cisplatin in a xenograft mouse model despite downregulation of proliferative biomarkers” (Oncotarget, 2015).
Where two headings read alike, the source gives them in different places. Peptide text beside a SMILES is read from it. * marks the point of attachment. Cbz = O=C(OCc1ccccc1)*; CH2F = FC*

Assays:
[1] = system: PARP cleavage in CAL27 cells; assay: Western blot of PARP cleavage; type: cell-based, human; settings: Z-VAD-fmk 20 μM together with 15 μM garcinol and 5 μM cisplatin, 48 h
Procedure: Vehicle or drug-treated whole-cell extracts were lysed in lysis buffer [250 mM NaCl, 20 mM HEPES, 2 mM EDTA (pH 8.0), 0.5 mM EGTA, 0.1% Triton X-100, 1.5 μg/mL aprotinin, 1.5 μg/mL leupeptin, 1 mM phenylmethylsulfonylfluoride (PMSF), and 1.5 mM NaVO4]. Lysates were then spun at 13,300 rpm for 10 min to remove insoluble material and resolved on a 10% SDS gel. After electrophoresis, the proteins were electrotransferred to a nitrocellulose membrane (Bio-Rad), blocked with Blocking One (Nacalai Tesque, Inc.), and probed with antibodies of interest overnight at 4 °C. The blot was washed with TBS with 0.1% Tween-20, exposed to HRP-conjugated secondary antibodies for 1 h, and finally examined by chemiluminescence using Western Bright Sirius HRP substrate (Advansta).
Supplementary Figure 2: Z-VAD-fmk abrogates the garcinol-induced caspase-3 activation. CAL27 cells (5 × 10^5 cells/mL) were treated with 15 μM garcinol and/or 5 μM cisplatin for 48 h in the absence or presence of 20 μM Z-VAD-fmk, whole-cell extracts were prepared, separated by SDS-PAGE, and subjected to western blot against PARP antibody. The same blot was stripped and reprobed with β-actin antibody to verify equal protein loading.
(also on this page, place not known: www.impactjournals.com/oncotarget/ Oncotarget, Materials 2014 Supplementary Z-V AD-fmk 10 5 Z-V AD-fmk,) […]

CAL27 xenografts = assay: HNSCC xenograft mouse model, tumor volume; type: in vivo, athymic nu/nu female mice; settings: 4 weeks, garcinol 0.5 mg/kg i.p. five times/week, cisplatin 2 mg/kg i.p. twice weekly
Procedure: (§1) All procedures involving animals were reviewed and approved by NUS Institutional Animal Care and Use Committee. Six-week old athymic nu/nu female mice (Animal Resource Centre, Australia) were implanted subcutaneously in the right flank with CAL27 cells (3 × 10^6 cells/100 μL saline). When tumors have reached 0.25 cm in diameter, the mice were randomized into the following treatment groups (n = 5/group): (I) untreated control (0.1% DMSO, 100 μL daily); (II) garcinol (0.5 mg/kg body weight, suspended in 0.1% DMSO, intraperitoneal [i.p.] injection, five times/week); (III) cisplatin alone (2 mg/kg body weight, suspended in 0.1% DMSO, i.p. injection, twice/week); and (IV) combination (garcinol, 0.5 mg/kg body weight, i.p. injection, five times/week and cisplatin, 2 mg/kg body weight, i.p. injection, twice/week). Therapy was continued for 4 weeks, and the animals were euthanized 24 h after the last dose. Primary tumors were excised and the final tumor volume was calculated using the formula V = L × (W)^2/2 where L is the length and W is the width. Half of the tumor tissue was fixed in formalin and embedded in paraffin for immunohistochemistry (IHC) analysis. The other half was snap frozen in liquid nitrogen and stored at −80°C.

MDA686LN cells = assay: MTT cell viability assay; type: cell-based; settings: Homo sapiens, 72 h
Procedure: (§2) The inhibitory effect of garcinol against HNSCC cell growth was determined by the MTT dye uptake method as described previously. Briefly, the cells (5 × 10^4 cells/mL) were incubated in triplicate in a 96-well plate in the presence or absence of different concentrations of garcinol in a final volume of 0.2 mL for indicated time intervals at 37 °C. Thereafter, 20 μL MTT solution (5 mg/mL in PBS) was added to each well. After a 2 h incubation at 37°C, 0.1 mL lysis buffer (20% SDS, 50% dimethylformamide) was added after removal of the medium, incubation was continued at 37°C for 1 h, and then the optical density (OD) at 570 nm was measured by the Safire2™ microplate reader (Tecan).

UMSCC1 cells = assay: MTT cell viability assay; type: cell-based; settings: Homo sapiens, UMSCC1, 72 h
Procedure: as §2

CAL27 cells = assay: MTT cell viability assay; type: cell-based; settings: Homo sapiens, CAL-27, CAL27, 72 h
Procedure: as §2, with “(Tecan). […]” for “(Tecan).”
www.impactjournals.com/oncotarget/ Oncotarget, Supplementary Materials 2015 […]
Supplementary Figure 1: (A) Garcinol augments the cytotoxic effect of cisplatin in HNSCC cells. CAL27 cells (1 × 10^4 cells/well) were exposed for 48 h to different concentrations of garcinol and cisplatin, and their combination and then subjected to MTT assay to analyze the viability of tumor cells. (B) Assessment on the type of combination relationship was done using the method developed by Chou-Talalay multiple drug effect equation. The degree of synergy was assessed based on CI values, where CI values of > 1.0 implies antagonism, 1.0 implies additive and < 1.0 implies synergistic effect relationships. […]

[2] = system: NF-κB-dependent reporter gene expression in MDA686Tu cells; assay: NF-κB luciferase reporter assay; type: cell-based, human; settings: 12 h
Procedure: MDA686Tu cells (1 × 10^4 cells/well) in 96-well were transfected of plasmid with NF-κB responsive […] elements linked to a luciferase reporter gene using lipofectamine® 2000. After transfection for 48 h, indicated concentrations of garcinol were added into the wells for 12 h. Luciferase activity was determined using Bright-Glo™ luciferase assay kit from Promega.

[3] = Pharmacokinetics study of garcinol in mice; type: in vivo; settings: nude, ip, mouse serum; for AUC: read-out: area under the serum concentration-time curve (AUC) at 8 h; for Cmax: read-out: peak serum concentration (Cmax); for Tmax: read-out: time of peak serum concentration post-dose
Procedure: Pharmacokinetics of garcinol was conducted in nude mice by i.p. injection at dose of 0.5 mg/kg or 2 mg/kg. The mice were allowed food and water ad libitum before pharmacokinetics experiment. About 150 μL of blood was taken from facial vein of mice at 10 min, 30 min, 1, 2, 4, 6, and 8 h post-dose. After centrifugation of blood samples at 14,000 rpm at 4°C for 10 min, mouse sera (the supernatant) were transferred into Eppendorf tube. 10 μL of each serum was processed by adding 3-folds excess of acetonitrile-containing isogarcinol, the internal standard followed by vortexing for 1 min. The tube was then centrifuged at 14,000 rpm at 4°C for 10 min. Then 30 μL of the supernatants were transferred into glass inserts (250 μL) with 70 μL of 10 mM ammonia acetate solution. 50 μL of processed serum samples were injected into LC-MS/MS which was carried out under negative electrospray ionization (ESI) and multiple reaction monitoring (MRM) mode. […] The daughter ion monitored for garcinol and isogarcinol was 409 and 335, respectively. SCIEX Analyst software (version 1.4.2) was used for data acquisition and analysis.

[4] = Body weight during xenograft experiment; type: in vivo, athymic nu/nu female mice; settings: four week treatment; garcinol 0.5 mg/kg i.p. five times/week, alone or with cisplatin 2 mg/kg i.p. twice weekly
Procedure: as §1

AUC ([3]; 0.5 mg/kg i.p.) [µM·h] | Cmax ([3]; 0.5 mg/kg i.p.) [µM] | Tmax ([3]; 0.5 mg/kg i.p.) [min] | AUC ([3]; 2 mg/kg i.p.) [µM·h] | Cmax ([3]; 2 mg/kg i.p.) [µM] | Tmax ([3]; 2 mg/kg i.p.) [min] | Compound | effect on increased PARP cleavage [1] | reduction of tumor volume (CAL27 xenografts) [%] | IC50 (MDA686LN cells) [µM] | IC50 (UMSCC1 cells) [µM] | IC50 (CAL27 cells) [µM] | NF-κB-dependent reporter gene expression [2] | body weight of the animals [4]
– | – | – | – | – | – | COC(=O)C[C@H](NC(=O)[C@H](C)NC(=O)[C@@H](NC(=O)OCc1ccccc1)C(C)C)C(=O)CF [Z-VAD-fmk] (Cbz-Val-Ala-Asp(OMe)-CH2F) | completely blocked | – | – | – | – | – | –
– | – | – | – | – | – | N.N.[Cl][Pt][Cl] [cisplatin, cis-dichloro-diammineplatinum (II)] | – | 50 | – | – | – | – | –
4.3 | 1.83 | 30 | 16.9 | 6.64 | 30 | C=C(C)[C@@H](CC=C(C)C)C[C@@]12C[C@@H](CC=C(C)C)C(C)(C)[C@@](CC=C(C)C)(C(=O)C(C(=O)c3ccc(O)c(O)c3)=C1O)C2=O [garcinol] | – | 50 | 13.8 | 11.6 | 14.7 | significantly abrogate | no significant loss of body weight
